This note sets out measurements from patent publication US7736911B2, “Activity-based probes for protein tyrosine phosphatases” (Albert Einstein College of Medicine of Yeshiva University, priority 2004, dated 2010).

Data set [1] is described as follows: Stability of probe in buffers and toward nucleophiles (NMR and mass spectrometry).
For data set [2], the system named is panel of non-PTP enzymes/proteins. Format: binding.
Data set [3] concerns PTPs, including PTP1B, HePTP, SHP2, LAR, PTPα, PTPH1, VHR, and Cdc14. In words: PTP inactivation by BBP-based probes, several PTPs (pNPP substrate). Format: biochemical. The conditions noted are these: for effectiveness at inhibiting PTP activity, I compared with II: pNPP as substrate.
Data set [4] relates to PTPs: YopH, PTP1B, HePTP, SHP2, FAP-1, PTPα, DEP-1, VHR, Cdc14, PRL3, low molecular weight PTP. Format: binding. The conditions noted are these: pH 6.
The test system of data set [5] is total cell lysates from E. coli. Type of data set: binding.
The nature of data set [6]: Solubility in aqueous solution. Format: physicochemical. The conditions noted are these: compared with II.

On to `O=C(CCCCC1SCC2NC(=O)NC21)NCc1ccc(C(Br)P(=O)(O)O)cc1` (stereo not shown) [Compound I, [Bromo-(4-{[5-(2-oxo-hexahydro-thieno[3,4-d]imidazol-6-yl)-pentanoylamino]-methyl}-phenyl)-methyl]-phosphonic acid], for which the “reaction with nucleophilic agents” value in data set [1] (48 hours with 100 mM DTT, 50 mM azide or 50 mM cysteine, pH 6 or 7 buffers) was “did not produce the expected substitution products”. Moreover, the stability in buffer entry in data set [1] (pH 6 buffers) was “quite stable”. Besides, the “stability in buffer (solvolysis)” value in data set [1] (pH>7) is on record as “significant solvolysis could be detected”. Also, the “reactivity towards non-PTP enzymes/proteins” value in data set [2] is “none of the proteins tested were reactive”. In data set [3], the “effect of scavenging nucleophiles on rate of PTP inactivation” value is “did not affect the rate” and the “effectiveness at inhibiting PTP activity, I compared with II” value was “equally effective at inhibiting PTP activity”. Moreover, the “reversibility of PTP inactivation” value in data set [3] (extensive dialysis and/or buffer exchange of the reaction mixture) is on record as “irreversible”. In addition, the “covalent labeling of PTPs” value in data set [4] is reported as “covalently incorporated into all PTPs tested”. Besides, the “labeling of E. coli proteins” value in data set [5] is reported as “no E. coli proteins were labeled”. In data set [6], the “solubility in aqueous solution” value was “better solubility in aqueous solution”.

`O=C(CCCCC1SCC2NC(=O)NC21)NCCCCCC(=O)NCc1ccc(C(Br)P(=O)(O)O)cc1` (stereo not shown) [Compound II, {Bromo-[4-({6-[5-(2-oxo-hexahydro-thieno[3,4-d]imidazol-6-yl)-pentanoylamino]-hexanoylamino}-methyl)-phenyl]-methyl}-phosphonic acid]: the “effectiveness at inhibiting PTP activity, I compared with II” value in data set [3] is “equally effective at inhibiting PTP activity”.

On to `O=C(O)CCCC[C@@H]1SC[C@@H]2NC(=O)N[C@@H]21` [biotin, reference compound], for which the “covalent labeling of PTPs” value in data set [4] is listed as “did not label the PTPs”.

Take arsenate [reference compound]: the “protection of PTP from BBP-mediated inactivation” value in data set [3] is reported as “able to protect PTP from BBP-mediated inactivation”.
